# Laboratory results from US20060234944A1, “Beta-secretase inhibitors and methods of use” (Oklahoma Medical Reseach Foundation, priority 2001, published 2006).
# pKi: −log10 of the molar value.
# Experiments:
# [1] = target: T1, memapsin 2 (Homo sapiens, UniProt P56817); assay: Inhibition of memapsin 2 cleavage of fluorogenic substrate FS-2 (Ki, Ki apparent, Vi/Vo, % inhibition); format: biochemical; conditions: for pKi: Table 1, apparent Ki in presence of substrate FS-2, N.I. = no inhibition, read-out: Ki app; for % Inh (M1/M2): Table 9, ratio of % inhibition memapsin 1 / memapsin 2, 1 or less = greater inhibition of memapsin 2
# T1 construct: made in house; host or cells: E. coli
# T1 sequence (P56817 41-454): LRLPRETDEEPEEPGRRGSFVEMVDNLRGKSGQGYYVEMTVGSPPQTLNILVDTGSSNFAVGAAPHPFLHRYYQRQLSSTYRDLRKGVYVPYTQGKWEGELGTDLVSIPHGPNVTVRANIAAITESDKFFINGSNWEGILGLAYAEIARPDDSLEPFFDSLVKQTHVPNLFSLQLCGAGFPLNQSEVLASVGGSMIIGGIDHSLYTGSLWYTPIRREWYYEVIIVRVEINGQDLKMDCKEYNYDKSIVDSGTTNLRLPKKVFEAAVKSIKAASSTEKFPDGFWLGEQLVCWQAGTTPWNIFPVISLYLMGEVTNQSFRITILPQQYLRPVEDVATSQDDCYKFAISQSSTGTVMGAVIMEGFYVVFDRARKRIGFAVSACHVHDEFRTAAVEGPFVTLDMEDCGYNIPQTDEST
# Experimental: Ki is the inhibition equilibrium constant which indicates the ability of compounds to inhibit the β-secretase activity of memapsin 2 and memapsin 1. […] The K1 value is independent of the substrate, and converted from Ki apparent.
# The Vi/Vo values depicted in Table 1 were determined at conditions under which the enzyme and inhibitor concentrations were equal (e.g., about 80 nM, 100 nM).
# The relationship of Ki (independent of substrate concentration) to Kiapp is a function of substrate concentration in the assay and the Km for cleavage of the substrate by either memapsin 1 or memapsin 2 by the relationship: Kiapp=Ki(1+[S]/Km).
# Ki is the inhibition equilibrium constant which indicates the ability of compounds to inhibit the β-secretase activity of memapsin 2 and memapsin 1. […] The Ki value is independent of the substrate, and converted from Ki apparent.
# An aliquot of the inhibitor of known concentration in DMSO was diluted into 1.8 ml 0.1 M NaOAc, pH 4.0. DMSO and added to a final concentration of 10% (v/v), and memapsin 2 (final concentration of 80 nM), followed by a 20 minute equilibration at 37° C. Compounds were evaluated for the ability to inhibit memapsin 1 and memapsin 2 at concentrations between about 10 nM and about 10 μm of inhibitor.
# The relationship of Ki (independent of substrate concentration) to Kiapp is a function of substrate concentration in the assay and the Km for cleavage of the substrate by either memapsin 1 or memapsin 2 by the relationship: Kiapp=Ki (1+[S]/Km).
# [2] = tested on: plasma Aβ40; assay: Inhibition of Aβ production in APP/F transgenic mouse model of Alzheimer's disease (plasma Aβ40 sandwich ELISA); format: in vivo, mice; conditions: for Reduction of plasma Aβ40 / Course of inhibition of plasma Aβ40 over a 24-h period: APP/F mice; for Reduction of plasma Aβ40: about 163 nanomoles i.p., within 30 minutes following injection; for Course of inhibition of plasma Aβ40 over a 24-h period: single i.p. injection; for Blood brain barrier penetration in transgenic mice: concluded from reduction of plasma Aβ
# Experimental: Compounds MMI-138, MMI-165, and MMI-185 were synthesized as described above. Compounds were dissolved in 1 ml of dimethyl sulfoxide (DMSO) to a final concentration of about 1 mg/ml for MMI-165 and MMI-185, and about 10 mg/ml for MMI-138. […] Inhibitors were diluted into PBS or H2O immediately prior to injection, as described below. Inhibition constants were determined by methods described by Ermolieff, et al (Biochem. 39:12450-12456 (2000), the teachings of which are incorporated hereby in their entirety).
# The tg2576 strain of mice was obtained from Taconic (Germantown, N.Y.). The APP/F strain of mice were obtained by mating the tg2576 mice with the FVB/N strain. To determine presence of the Swedish APP gene in APP/F mice, the DNA from mice was isolated according to the Qiagen Dneasy™ Tissue Kit. PCR (Qiagen kit and protocol) was used to amplify the fragment of DNA corresponding to the human Swedish APP gene. The following primers were used: […]
# At the age of three months, animals of the Alzheimer's disease mouse model APP/F were injected intraperitoneally (i.p.) with about 163 nanomoles of either compounds MMI-138 (molecular weight 674 g/mole; 110 μg per animal, n=2), MMI-165 (molecular weight 626 g/mole; 102 μg per animal, n—2), or MMI-185 (molecular weight 686; 112 μg per animal, n—2).
# Heparinized capillary tubes collected blood samples from anesthetized animals from either the retro-orbital sinus or from the saphenous vein at specified intervals following injection. The blood samples were transferred to sterile 1.5 mL microcentrifuge tubes, centrifuged at 5,100 RPM for 10 minutes to recover the plasma (supernatant), and stored at −70° C. until analysis for the Aβ40 by Enzyme Linked-Immuno-Sorbent Assay (ELISA).
# A sandwich ELISA (BioSource International, Camarillo, Calif.) was used to determine the levels of Aβ40 in plasma samples. The ELISA utilizes a primary antibody specific for human Aβ for the immobilization of the amino-terminus and a detection antibody specific for the carboxy-terminal amino acids of Aβ40. A conjugated secondary antibody was used to detect the ternary complex, using a stabilized chromogen substrate, quantifiable following addition of 1 M HCl, with the optical densities measured at 450 nm. The procedures were followed according to the BioSource protocol. Optical densities were converted to pg/ml quantities of Aβ40 using a linear regression of the optical densities of standards obtained from the commercial kit, to their known concentrations.
SMILES,pKi [1],% Inh (M1/M2) [1],other results
CC(C)C[C@H](NC(=O)OC(C)(C)C)[C@@H](O)C[C@@H](C)C(=O)N[C@@H](C)C(=O)NCc1ccccc1 [MMI-001],2.43,,
CSCC[C@H](NC(=O)[C@H](C)NC(=O)[C@H](C)C[C@H](O)[C@H](CC(C)C)NC(=O)OC(C)(C)C)C(=O)NCc1ccccc1 [MMI-002],3.37,,
CC(C)C[C@H](NC(=O)OC(C)(C)C)[C@@H](O)C[C@@H](C)C(=O)N[C@@H](C)C(=O)N[C@@H](CCS(C)(=O)=O)C(=O)NCc1ccccc1 [MMI-003],2.58,,
CSCC[C@H](NC(=O)[C@@H](NC(=O)OC(C)(C)C)C(C)C)C(=O)N[C@@H](CC(C)C)[C@@H](O)C[C@@H](C)C(=O)N[C@H]1c2ccccc2C[C@H]1O [MMI-046],3.82,,
CC(C)C[C@H](NC(=O)[C@H](CCS(C)(=O)=O)NC(=O)[C@@H](NC(=O)OC(C)(C)C)C(C)C)[C@@H](O)C[C@@H](C)C(=O)N[C@H]1c2ccccc2C[C@H]1O [MMI-047],3.96,,
CC(C)C[C@H](NC(=O)[C@H](CCO)NC(=O)c1cnc2ccccc2c1)[C@@H](O)C[C@@H](C)C(=O)N[C@H](C(=O)N[C@H]1c2ccccc2C[C@H]1O)C(C)C [MMI-049],3.70,,
CCC(C)[C@H](NC(=O)[C@H](C)C[C@H](O)[C@H](CC(C)C)NC(=O)[C@H](CCO)NC(=O)c1cnc2ccccc2c1)C(=O)N[C@H]1c2ccccc2C[C@H]1O (stereo partly shown) [MMI-050],3.84,,
CC(C)C[C@H](NC(=O)[C@H](CCS(C)(=O)=O)NC(=O)[C@@H](NC(=O)OC(C)(C)C)C(C)C)[C@@H](O)C[C@@H](C)C(=O)N[C@@H]1c2ccccc2C[C@@H]1O [MMI-054],3.33,,
CSCC[C@H](NC(=O)[C@@H](NC(=O)OC(C)(C)C)C(C)C)C(=O)N[C@@H](CC(C)C)[C@@H](O)C[C@@H](C)C(=O)N[C@H]1CCCC[C@@H]1O [MMI-055],3.20,,
CC(C)C[C@H](NC(=O)[C@H](CCS(C)(=O)=O)NC(=O)[C@@H](NC(=O)OC(C)(C)C)C(C)C)[C@@H](O)C[C@@H](C)C(=O)N[C@@H]1CCCC[C@@H]1O [MMI-058],3.39,,
CC(C)C[C@H](NC(=O)[C@H](CCS(C)(=O)=O)NC(=O)[C@@H](NC(=O)OC(C)(C)C)C(C)C)[C@@H](O)C[C@@H](C)C(=O)N[C@@H]1CCCC[C@@H]1O [MMI-060],4.00,,
CSCC[C@H](NC(=O)[C@@H](NC(=O)OC(C)(C)C)C(C)C)C(=O)N[C@@H](CC(C)C)[C@@H](O)C[C@@H](CO)C(=O)N[C@H](C(=O)NCc1ccccc1)C(C)C [MMI-078],,,% Inh (M1/M2) ([1]; listed as 78): 0.76
Cc1c(O)cccc1C(=O)N[C@@H](C(C)C)[C@@H](O)N[C@@H](CCS(C)(=O)=O)C(=O)N[C@@H](CC(C)C)[C@@H](O)C[C@@H](C)C(=O)N[C@@H](CC(C)C)C(=O)NCc1ccccc1 [MMI-122],,,"Vi/Vo ([1]; ratio of initial cleavage velocities of FS-2 with/without compound, enzyme and inhibitor concentrations equal (e.g., about 80 nM, 100 nM)): 1.17"
Cc1cc(C)n(COC(=O)N[C@@H](CCS(C)(=O)=O)C(=O)N[C@@H](CC(C)C)[C@@H](O)C[C@@H](C)C(=O)N[C@H](C(=O)NCc2ccccc2)C(C)C)n1 [MMI-139],,0,
COCC[C@H](NC(=O)[C@H](CC(C)C)NC(=O)OC(C)(C)C)C(=O)N[C@@H](CC(C)C)[C@@H](O)C[C@@H](C)C(=O)N[C@@H](CC(C)C)C(=O)NC(C)C [MMI-185],,,Reduction of plasma Aβ40 [2]: 63%; Course of inhibition of plasma Aβ40 over a 24-h period [2]: appeared to return to initial level; Blood brain barrier penetration in transgenic mice [2]: penetrated the blood brain barrier

# Now from value to compound, other results behind:
pKi [1],% Inh (M1/M2) [1],SMILES,other results
1.81,,CSCC[C@H](NC(=O)[C@@H](NC(=O)OC(C)(C)C)C(C)C)C(=O)N[C@@H](CC(C)C)[C@@H](O)CN(C)C(=O)[C@H](NC(=O)OCc1ccccc1)C(C)C [MMI-061],
,0.73,CC(C)C[C@H](NC(=O)[C@H](CCS(C)(=O)=O)NC(=O)[C@@H](NC(=O)OC(C)(C)C)C(C)C)[C@@H](O)C[C@@H](C)C(=O)N[C@@H](C(=O)NCc1ccccc1)[C@@H](C)O [MMI-073],
3.96,,CSCC[C@H](NC(=O)[C@@H](NC(=O)OC(C)(C)C)C(C)C)C(=O)N[C@@H](CC(C)C)[C@@H](O)C[C@@H](C)C(=O)N[C@@H](C(C)C)C1CCCCO1 (stereo partly shown) [MMI-130],
,1.30,CSCC[C@H](NC(=O)[C@@H](NC(=O)OC(C)(C)C)C(C)C)C(=O)N[C@@H](CC(C)C)[C@@H](O)C[C@@H](CO)C(=O)N[C@H](C(=O)NCc1ccccc1)C(C)C [MMI-132],
,0.10,CSCC[C@H](NC(=O)OCn1nc(C)cc1C)C(=O)N[C@@H](CC(C)C)[C@@H](O)C[C@@H](C)C(=O)N[C@H](C(=O)NCc1ccccc1)C(C)C [MMI-138],"Reduction of plasma Aβ40 [2]: 57%; Course of inhibition of plasma Aβ40 over a 24-h period [2]: remained nearly constant; Blood brain barrier penetration in transgenic mice [2]: penetrated the blood brain barrier; Ki for memapsin 2 lower than Ki for memapsin 1 (selectivity) ([1]; memapsin 2 relative to memapsin 1, stated in text): about 60 fold"
,0.47,CSCC[C@H](NC(=O)OCn1nc(C)cc1C)C(=O)N[C@@H](CC(C)C)[C@@H](O)C[C@@H](C)C(=O)N[C@H](C(=O)NCC(C)C)C(C)C [MMI-156],
,0.45,CSCC[C@H](NC(=O)OCn1nc(C)cc1C)C(=O)N[C@@H](CC(C)C)[C@@H](O)C[C@@H](C)C(=O)N[C@H](C(=O)NC(C)C)C(C)C [MMI-165],Reduction of plasma Aβ40 [2]: 46%; Course of inhibition of plasma Aβ40 over a 24-h period [2]: remained nearly constant; Blood brain barrier penetration in transgenic mice [2]: penetrated the blood brain barrier
,0.18,CCCCNC(=O)[C@@H](NC(=O)[C@H](C)C[C@H](O)[C@H](CC(C)C)NC(=O)[C@H](CCSC)NC(=O)OCn1nc(C)cc1C)C(C)C [MMI-167],
,0.18,CSCC[C@H](NC(=O)OCn1nc(C)cc1C)C(=O)N[C@@H](CC(C)C)[C@@H](O)C[C@@H](C)C(=O)N[C@@H](CC(C)C)C(=O)NC(CF)CF [MMI-171],
,0,CSCC[C@H](NC(=O)OCCn1nc(C)cc1C)C(=O)N[C@@H](CC(C)C)[C@@H](O)C[C@@H](C)C(=O)N[C@@H](CC(C)C)C(=O)NCC(C)C [MMI-176],
,0,CSCC[C@H](NC(=O)OCCn1nc(C(C)C)cc1C(C)C)C(=O)N[C@@H](CC(C)C)[C@@H](O)C[C@@H](C)C(=O)N[C@H](C(=O)NCC(C)C)C(C)C [MMI-180],
,0.19,CSCC[C@H](NC(=O)OCn1nc(C)cc1C)C(=O)N[C@@H](CC(C)C)[C@@H](O)C[C@]1(C)CCN([C@@H](CC(C)C)C(=O)NCC(C)C)C1=O [MMI-181],
,0,CCCCNC(=O)[C@H](C(C)C)N1CC[C@@](C)(C[C@H](O)[C@H](CC(C)C)NC(=O)[C@H](CCSC)NC(=O)OCn2nc(C)cc2C)C1=O [MMI-182],
